Reference: US11059830B2, “Compounds that participate in cooperative binding and uses thereof” (Revolution Medicines, Inc., priority 2015, dated 2021)

Key:
[1] = molecular target: T1, FKBP12 (Homo sapiens (Human), UniProt P62942); assay: AlphaLISA FKBP12 binding: inhibition of binding of biotinylated FK506 to FLAG tagged FKBP12; conditions: read-out: Binding affinity to FKBP12 (by displacement of FK506)
Excerpt: The binding of compounds of the invention to FKBP12 can be determined using the following protocol.
This protocol utilizes Perkin Elmers AlphaLISA technology platform to detect FKBP binders by measuring the inhibition of binding of biotinylated FK506 to FLAG tagged FKBP12.
10×TBST Buffer (Boston BioProducts IBB-181), Biotinylated FK506 (in-house), FLAG tagged FKBP (in-house); anti-FLAG Donor beads (Perkin Elmer AS103) and Streptavidin Acceptor beads (Perkin Elmer AL125); Compounds in DMSO (in-house), FK506.
Experimental Protocol/Description of Assay: Add 20 uL of 12.5 nM FKBP-FLAG working stock to each well of the 96-well plate. Add 1 uL of test compound (100% DMSO) to each well of the plate using the Janus MTD head and P20 tips (except control wells). Add 1 uL of DMSO to negative control wells and 1 uL of 50 uM FK506 solution to positive control wells. In the dark, add 20 uL of combined Donor/Acceptor beads to each well. Incubate in the dark for 30 minutes at room temperature. In the dark, add 10 uL of 5 nM biotinylated FK506 working stock to each well. Incubate in the dark for 60 minutes at room temperature. Protect plate from light until reading on Biotek Synergy2 Plate Reader; Alphalisa 96-well protocol (680 excitation/615 emission).

[2] = molecular target: CEP25029.4 (residues 1982-2231) (Homo sapiens (Human), UniProt P62942+Q9BV73); assay: ITC binding of FKBP12-compound binary complex to CEP250
Method: (§1) This protocol utilizes Isothermal Titration Calorimetry (ITC) to directly measure the heat change associated with binding of FKBP12-Compound 2 and FKBP12-Compound 6 binary complexes to CEP250. Measurement of the heat change allows accurate determination of association constants (Ka), reaction stoichiometry (N), and the change in binding enthalpy (ΔH).
(§2) Compound 2 and Compound 6 in 100% DMSO (in-house), Protein Buffer (10 mM HEPES, pH 7.5, 75 mM NaCl, 0.5 mM TCEP), assay buffer (protein buffer+1% DMSO), FKBP12 (in-house), CEP25029.4 (residues 1982-2231) and CEP25011.4 (residues 2134-2231) (in-house).
(§3) MicroCal™ ITC200 (GE Healthcare) Experimental Protocol: FKBP12 stock solution was diluted to 10 μM in assay buffer (1% DMSO final). Compound was added to FKBP12 to 20 μM (1% DMSO final), and binary complex was filled into the reaction cell of the ITC device after 5-10 min pre-incubation time. CEP250 protein stocks were diluted to 50 μM in assay buffer and supplemented with 20 μM compound (1% DMSO final) before being filled into the injection syringe. A control experiment in the absence of compound was also run to determine the heat associated with operational artifacts and the dilution of titrant as it was injected from the syringe into the reaction cell.

[3] = molecular target: CEP25011.4 (residues 2134-2231) (Homo sapiens (Human), UniProt P62942+Q9BV73); assay: as above
Method: as §1, §2, §3

[4] = molecular target: T1, FKBP12; assay: SPR kinetics of Compound 2 and Compound 6 binding to immobilized FKBP12 (Example 8); conditions: compound to immobilized FKBP12, 25° C.
Method: This protocol utilizes Surface Plasmon Resonance (SPR) as a method to determine kinetics (KD, Ka, Kd) for the binding of Compound 2 and Compound 6 (analyte) to immobilized FKBP12 (ligand).
Compound 2 and Compound 6 in 100% DMSO (in-house), 10×HBS-P+ buffer (GE Healthcare BR-1006-71), Assay buffer (1×HBS-P+ buffer, 1% DMSO), 12×HIS tagged FKBP12 (in-house).
(§4) Experiments are performed at 25° C. Stock solution of 12×HIS tagged FKBP12 is diluted to 100 nM in assay buffer (1% DMSO final). Approximately 500-600 RU of FKBP12 is immobilized on one of two flow cells of an activated NTA chip. The second flow cell is not activated as a reference for non-specific interaction of the analyte to the sensor chip. Various concentrations of Compound 2 or Compound 6 (1 nM-1 μM range), serially diluted into the same assay buffer (1% DMSO final), are injected onto the FKBP12 surface and reference surface at a flow rate of 10 μl/min. The surface is regenerated between analyte injections with 350 mM EDTA.
(§5) The BiaEvaluation software program is used for data fitting. All data is reference subtracted against both the reference flow cell and a buffer injection. For kinetic analyses, data is locally fit to a 1:1 interaction model.

[5] = molecular target: T1, FKBP12; assay: SPR binding of compound (analyte) to immobilized FKBP12 (Example 7); conditions: 25° C., 12×HIS tagged FKBP12 immobilized on NTA chip; read-out: SPR affinity to FKBP12: KD
Method: This protocol utilizes Surface Plasmon Resonance (SPR) as a method to determine kinetics (KD, Ka, Kd) for the binding of compound (analyte) to immobilized FKBP12 (ligand).
Compound in 100% DMSO (in-house), 10×HBS-P+ buffer (GE Healthcare BR-1006-71), Assay buffer (1×HBS-P+ buffer, 1% DMSO), 12×HIS tagged FKBP12 (in-house).
as §4, with “compound” for “Compound 2 or Compound 6”
as §5

[6] = tested on: HeLa-FKBP12 cells; assay: Biosensor cell permeability assay (FKBP destabilizing mutant, whole cell); assay type: cell-based; conditions: 72 hrs
Method: Cell permeability of compounds can be determined using the following protocol.
This protocol utilizes a modified FKBP or cyclophilin destabilizing mutant to determine the bioactivity of FKBP binding compounds or cyclophilin binding compounds in whole cell assay.
DMEM, DMEM without Phenol Red, 10% FBS, 1× Sodium Pyruvate, 1× Glutamax. Add 125 ul of media with compound per well.
Experimental Protocol/Description of Assay: Plate HeLa-FKBP12 cells (for FKBP binding compounds) or HeLa-CyclophilinA cells (for cyclophilin binding compounds) and seed overnight at 5k/well (approximately −18 hrs.). Using a multi-channel pipet, take out the old media and add ˜125 ul of new media with compounds. Compounds are diluted using DMEM without Phenol Red, 10% FBS, 1× Sodium Pyruvate, lx Glutamax. Add 125 ul of media with compound per well. Cells are treated with compounds at concentration: 30, 10, 3.33, 1.11, 0.37, 0.12, 0.04 and 0.013 uM. Time points are taken at 72 hrs and plate read using plate reader with excitation/emission: 575/620.
Cell binding/permeability is calculated in fold-change (Total RFU of treated samples/total RFU of DMSO treated samples or total RFU above background (Total RFU minus total RFU of DMSO treated samples).

T1 sequence (P62942 whole entry): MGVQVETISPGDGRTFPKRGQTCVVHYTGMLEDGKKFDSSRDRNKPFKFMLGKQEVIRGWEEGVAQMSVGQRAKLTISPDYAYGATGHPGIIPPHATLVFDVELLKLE
Chain of CEP25011.4 (residues 2134-2231) (Q9BV73 2134-2231): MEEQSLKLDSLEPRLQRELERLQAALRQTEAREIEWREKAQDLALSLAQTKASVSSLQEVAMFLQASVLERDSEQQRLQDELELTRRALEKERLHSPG
Chain of CEP25011.4 (residues 2134-2231) (P62942 whole entry, the tested form may be a part): as the sequence (P62942 whole entry) above
Chain of CEP25029.4 (residues 1982-2231) (Q9BV73 1982-2231): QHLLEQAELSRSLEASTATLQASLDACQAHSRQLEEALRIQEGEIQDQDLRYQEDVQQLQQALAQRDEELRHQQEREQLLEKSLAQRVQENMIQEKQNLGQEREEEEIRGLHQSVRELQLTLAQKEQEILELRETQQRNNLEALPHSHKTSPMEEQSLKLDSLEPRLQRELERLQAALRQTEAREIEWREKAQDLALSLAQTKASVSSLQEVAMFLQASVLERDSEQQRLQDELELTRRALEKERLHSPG
Chain of CEP25029.4 (residues 1982-2231) (P62942 whole entry, the tested form may be a part): as the sequence (P62942 whole entry) above

SMILES | IC50 [1] | Kd [5] | IC50 [6] | also measured
CC[C@H](Cc1ccccc1)[C@@H]1CCCCCC(=O)[C@@H](C)[C@H](O)[C@@H](C)[C@@H]2CC[C@@H](C)C(O)(O2)C(=O)C(=O)N2CCCC[C@H]2C(=O)O1 [Compound 10, (S)-1-(2-((2R,3R,6S)-6-((2R,3R,4S,6E,9E,11R,12R)-12-benzyl-3,11-dihydroxy-4-methyl-5-oxotetradeca-6,9-dien-2-yl)-2-hydroxy-3-methyltetrahydro-2H-pyran-2-yl)-2-oxoacetyl)piperidine-2-carboxylic acid C-11 lactone] | 0.21 nM |  |  | 
CC[C@H](Cc1ccccc1)[C@@H]1CCCCCC[C@@H](C)[C@H](O)[C@@H](C)[C@@H]2CC[C@@H](C)C(=O)C(O)(O2)C(=O)N2CCCC[C@H]2C(=O)O1 [Compound 6, (2S)-1-((4R,7S)-7-((2R,3S,4R,11 S,12R)-12-benzyl-3,11-dihydroxy-4-methyltetradecan-2-yl)-2-hydroxy-4-methyl-3-oxooxepane-2-carbonyl)piperidine-2-carboxylic acid C-11 lactone] |  |  |  | Kd [2]: 360 nM; ΔH ([2]; ITC, FKBP12 10 μM in cell, CEP25029.4 118 μM in syringe, ligand 20 μM, 298 K): -13.98 kcal/mol; ΔG ([2]; ITC, FKBP12 10 μM, CEP25029.4 118 μM, ligand 20 μM, 298 K, ΔG = −RT ln Ka): -8.781 kcal/mol; −T*ΔS ([2]; ITC, FKBP12 10 μM, CEP25029.4 118 μM, ligand 20 μM, 298 K, −TΔS = ΔG − ΔH): 5.194 kcal/mol; Kd [3]: 80 nM; ΔH ([3]; ITC, FKBP12 10 μM in cell, CEP25011.4 68 μM in syringe, ligand 20 μM, 298 K): -11.42 kcal/mol; ΔG ([3]; ITC, FKBP12 10 μM, CEP25011.4 68 μM, ligand 20 μM, 298 K, ΔG = −RT ln Ka): -9.646 kcal/mol; −T*ΔS ([3]; ITC, FKBP12 10 μM, CEP25011.4 68 μM, ligand 20 μM, 298 K, −TΔS = ΔG − ΔH): 1.77 kcal/mol; koff [4]: 0.0088 s⁻¹; kon ([4]; read-out: Ka): 567000 M⁻¹ s⁻¹
CC[C@H](Cc1ccccc1)[C@@H]1/C=C/C/C=C/C[C@@H](C)[C@H](O)[C@@H](C)[C@@H]2CC[C@@H](C)C(=O)C(O)(O2)C(=O)N2CCC[C@H]2C(=O)O1 [Compound 4] | 4.8 nM | 23.1 nM |  | 
CC[C@H](Cc1ccccc1)[C@@H]1/C=C/C/C=C/C[C@@H](C)C(=O)[C@@H](C)[C@@H]2CC[C@@H](C)[C@@](O)(O2)C(=O)C(=O)N2CCCC[C@H]2C(=O)O1 [Compound 9] | 785 nM |  | > 1000 nM | 
CCC(Cc1ccccc1)C1/C=C/C/C=C/CC(C)C(O)C(C)C2CCC(C)C(O)(CC(=O)N3CCCCC3C(=O)O1)O2 (stereo not shown) [Compound 1] | 355 nM | 71.5 nM |  | 
CC[C@H](Cc1ccccc1)[C@@H]1/C=C/C=C/CC(=O)[C@@H](C)[C@H](O)[C@@H](C)[C@@H]2CC[C@@H](C)C(=O)C(O)(O2)C(=O)N2CCCC[C@H]2C(=O)O1 [Compound 5] | 18.8 nM | 7 nM |  | 
CC[C@H](Cc1ccccc1)[C@@H]1/C=C/C/C=C/C(=O)[C@@H](C)[C@H](O)[C@@H](C)[C@@H]2CC[C@@H](C)[C@@](O)(O2)C(=O)C(=O)N2CCCC[C@H]2C(=O)O1 [Compound 3] | 0.34 nM | 1.3 nM |  | 
CC[C@H](Cc1cccc(O)c1)[C@@H]1/C=C/C/C=C/C[C@@H](C)[C@H](O)[C@@H](C)[C@@H]2CC[C@@H](C)[C@@](O)(O2)C(=O)C(=O)N2CCCC[C@H]2C(=O)O1 [Compound 8] | 1.1 nM |  | < 1000 nM | 
CC[C@H](Cc1cccc(O)c1)[C@@H]1/C=C/C/C=C/C[C@@H](C)[C@H](O)[C@@H](C)[C@@H]2CC[C@@H](C)C(=O)[C@@](O)(O2)C(=O)N2CCCC[C@H]2C(=O)O1 [Compound 7] | 0.95 nM |  | < 1000 nM | 
